Reference: ChEMBL document CHEMBL1124075, “Design, synthesis, and biological activity of a peptide mimic of vasopressin” (J Med Chem, 1988)
Bridge positions count the residues as written; N and C are the ends. Square brackets hold non-standard residues; d marks the D form. Peptide text beside a SMILES is read from it. Mpa = O=C(O)CCS

How the values were obtained:
[1] = molecular target: Vasopressin V2 receptor (Sus scrofa) (UniProt P32307); assay: Vasopressin V2 receptor binding affinity measured by competition with tritiated LVP lysine vasopressin in pig renal medullary preparation; settings: Renal medulla
[2] = molecular target: Vasopressin V2 receptor (Sus scrofa, UniProt P32307); assay: Inhibition of LVP-sensitive adenylate cyclase in a pig renal medullary preparation; assay type: tissue-based, Renal medulla
Chain of Vasopressin V2 receptor (P32307 whole entry): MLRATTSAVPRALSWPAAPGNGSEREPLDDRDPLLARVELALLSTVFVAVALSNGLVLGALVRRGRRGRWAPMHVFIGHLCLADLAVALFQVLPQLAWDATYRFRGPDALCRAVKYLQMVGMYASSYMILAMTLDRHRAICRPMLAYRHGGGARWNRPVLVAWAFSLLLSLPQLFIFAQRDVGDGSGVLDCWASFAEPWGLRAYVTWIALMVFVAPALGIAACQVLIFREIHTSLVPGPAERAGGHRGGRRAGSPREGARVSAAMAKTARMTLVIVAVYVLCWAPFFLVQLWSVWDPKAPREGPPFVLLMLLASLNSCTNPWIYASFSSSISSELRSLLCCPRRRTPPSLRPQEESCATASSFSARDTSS

Chain of Vasopressin V2 receptor (Sus scrofa) (P32307 whole entry): as above

K bind [1] | Ki [2] | SMILES
0.1 µM | 0.01 µM | CC(C)[C@@H]1NC(=O)[C@H](Cc2ccccc2)NC(=O)[C@H](Cc2ccccc2)NC(=O)CCSSC[C@@H](C(=O)N2CCC[C@H]2C(=O)N[C@@H](CCCN=C(N)N)C(=O)NCC(N)=O)NC(=O)[C@H](CC(N)=O)NC1=O ([Mpa]FFVNCPRG-NH2; disulfide 1-6)
29 µM | 9.2 µM | CC(C)[C@@H]1NC(=O)[C@H](Cc2ccccc2)NC(=O)[C@H](Cc2ccccc2)NC(=O)CCC[C@H](C(=O)N2CCC[C@H]2C(=O)N[C@@H](CCCN=C(N)N)C(=O)NCC(N)=O)NC(=O)[C@H](CC(N)=O)NC1=O
15 µM | 7 µM | CC(C)[C@@H]1NC(=O)[C@H](Cc2ccccc2)NC(=O)[C@H](Cc2ccccc2)NC(=O)CCC[C@@H](C(=O)N2CCC[C@H]2C(=O)N[C@@H](CCCN=C(N)N)C(=O)NCC(N)=O)NC(=O)[C@H](CC(N)=O)NC1=O
